As usually defined, the pIC50 is the negative decadic logarithm of the IC50, by convention in mol/L.

The results in this text go back to patent publication US20250115597A1, “TYK2 INHIBITORS AND COMPOSITIONS AND METHODS THEREOF” (LYNK PHARMACEUTICALS CO. LTD., priority 2021, published 2025).

Series [1] concerns the target T1, Ba/F3-FL-TYK2-P760L cells (Homo sapiens, UniProt P29597, P760L, cells depend on it).
T1 construct: BaF3-FL-T2P760L (nM)
Kind of series: Anti-proliferative assay, Ba/F3-FL-TYK2-P760L cells (Cell-Titer Glo). To be noted: 72 h, read-out: BaF3-FL-T2P760L IC50. Type of series: cell-based. The procedure, abridged:
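Compound exposure ran 72 h at 37 °C in 5% CO2 across nine 3-fold concentrations from a 20 μM top dose, added 24 h after seeding 2000 cells/well.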

A short description of series [2]: Plasma protein binding by equilibrium dialysis. To be noted: human plasma, equilibrium dialysis 5 hours at 37° C.; read-out: % Bound (human) (converted). The class given is in vitro ADME. On the procedure:
Plasma Protein Binding by Equilibrium Dialysis
Aliquots of test compound stock solution and warfarin stock solution were spiked into plasma to give the matrix solutions with theoretical concentrations of test compound at 0.2 and 2 μM or warfarin at 2 μM. Immediately transfer 50 μL of the spiked plasma solution suspension to a 96-well plate to act as T=0 control sample. Assemble the dialysis set up following the manufacturer's instructions. Load cells with 150 μL of plasma sample and dialyzed against equal volume of dialysis buffer (PBS). The assay is performed in duplicate. Cover the unit with gas permeable lid and incubate for 5 hours at 37° C. at 100 rpm in a constant temperature shaking box. At the end of incubation, remove lid and pipette 50 μL of post-dialysis samples from both buffer and plasma solution chambers into separated 96-well plate for analysis, respectively. Add 50 μL of plasma solution to the buffer samples, and an equal volume of PBS to the collected plasma solution samples. Shake the plate at 1000 rpm for 2 minutes and add 600 μL of 50% ACN/MeOH containing an appropriate internal standard (IS) to precipitate protein and release compound. Vortex at 1000 rpm for 10 minutes. Centrifuge for 10 minutes at 4000 rpm. Then transfer 75 μL of the supernatant to new 96-well plates for analysis. Add 150 μL of distilled water to each sample and mix for analysis by LC-MS/MS.
The free rate (% Unbound), binding rate (% Bound), and recovery rate (% Recovery) of the compound are calculated as follows: […]
In general terms: Equilibrium dialysis compares concentrations on both sides of a semipermeable membrane.

A further series has as its target T2, TYK2-JH2 domain (Homo sapiens, UniProt P29597).
T2 construct: IC50 on JH2 domain activity (nM)
Kind of series: Binding activity test for JH2 domain of TYK2 (Tb-antibody/tracer FRET). To be noted: for JAK1/TYK2 selectivity: ratio JAK1-JH2 IC50 / TYK2-JH2 IC50. The procedure, abridged: (§1)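 FRET read-out after 60 min at 25° C plus overnight at 4° C; tracer displacement detected via Tb-labelled antibody on the JH2 domain. Dose-response used 11 points at 3-fold dilution.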

In a further series the target is T3, JAK1-JH2 domain (Homo sapiens, UniProt P23458).
T3 construct: IC50 on JH2 domain activity (nM)
Kind of series: Binding activity test for JH2 domain of JAK1 (Tb-antibody/tracer FRET). The procedure, abridged:
as §1

A further series concerns pSTAT1. As to the kind of experiment: Phosphorylation inhibition of STAT in human whole blood, IFN-alpha stimulated (flow cytometry). The class given is cell-based. Conditions: 20 min; human whole blood, IFN-alpha 20 mins, CD3 cells; read-out: IC50 on pSTAT1 inhibition in h WB. On the procedure: Phosphorylation Inhibition of STAT in Human PBMC and Human Whole Blood Testing:
The inhibitory potential of test articles in human PBMC and human whole blood assay was evaluated by the method of flow cytometry.
IFN-alpha will activate JAK1 and TYK2 kinase in T cells by binding to IFN receptors, and then lead to phosphorylation of STAT1 and STAT2. The phosphorylated STAT1 enter nuclear and promote transcription and expression of IFN-gamma. To evaluate the efficacy of TYK2i in T cells, freshly prepared human PBMC or freshly collected human whole blood will be stimulated with certain unit of human IFN-alpha (Universal Type I IFN(1MU), R&D, 11200-2) for 20 mins in incubator. After stimulation, fix cells with Phosflow™ Fix Buffer I (BD, 557870), and then collect fixed cells by centrifugation (500 g, 8 min). Wash cells once with pre-cooled PBS, and then permeabilize cells with cold Perm Buffer III buffer (BD, 558050) for 45 mins on ice. Collect cells by centrifugation (600 g, 8 min) and washed twice with cold PBS. Stain cells with anti-human CD3 (FITC Mouse Anti-Human CD3, BD, 555332) and anti-pSTAT1_Y701(Alexa Fluor 647 Mouse Anti-Stat1 (pY701), BD, 612597) antibodies. Detect pSTAT1 by flow cytometry (CytoFlex S) and analyze data with FlowJo and GraphPad Prism 8 software. IC50 values of test articles were determined using 4-parameter logistic equation.
A general note: Flow cytometry measures light scatter and fluorescence of single cells or particles in a stream.

For a further series, the target named is T4, TYK2 (Homo sapiens, UniProt P29597).
T4 construct: purchased Carna Biosciences
Kind of series: TYK2 kinase activity, microfluidic assay (Caliper EZ Reader II). Type of series: biochemical. To be noted: TYK2 1 nM, 1 mM ATP. On the procedure: (§2) Testing for JAK1, JAK2 and TYK2 Kinase Activities
(§3) JAK activity was determined in the reaction buffer 50 mM HEPES, 0.01% Brij35, 10 mM MgCl2, 2 mM DTT by a microfluidic assay. The phosphorylation of a FAM labeled peptide substrate was monitored in the Caliper EZ Reader II (Perkin Elmer). The assay condition for each batch of enzyme (Carna Biosciences) was optimized to obtain 10% conversion rate of peptide substrate.
(§4) The test compounds were dissolved in DMSO to a stock concentration of 10 mM. Three-fold serially diluted compounds with top concentration of 5 μM were pre-incubated with JAK1, JAK2 or TYK2 for 10 min at ambient temperature. The final DMSO concentration of assay mixture was 1%. […] The reaction was stopped by adding 50 mM EDTA.
(§5) The percent inhibition was calculated by the following formula:
(§6) [formula] • wherein • Conversion %_max=the conversion rate in the positive well without addition of compound • Conversion %_sample=the conversion rate of test compounds • Conversion %_min=the conversion rate in the well without addition of enzyme
(§7) The dose-response (percent inhibition) curve was plotted and IC50 values were determined by GraphPad software.

In another series the target is T5, JAK1 (Homo sapiens, UniProt P23458).
T5 construct: purchased Carna Biosciences
Kind of series: JAK1 kinase activity, microfluidic assay (Caliper EZ Reader II). The class given is biochemical. To be noted: JAK1 5 nM, 1 mM ATP. On the procedure: as §2, §3, §4, §5, §6, §7

Another series deals with T6, JAK2 (Homo sapiens, UniProt O60674).
T6 construct: purchased Carna Biosciences
As to the kind of experiment: JAK2 kinase activity, microfluidic assay (Caliper EZ Reader II). The class given is biochemical. To be noted: JAK2 0.125 nM, 1 mM ATP. As for the experimental part: as §2, §3, §4, §5, §6, §7

Series [3] in a line: Microsomal metabolic stability assay. The class given is in vitro ADME. To be noted: pH 7.4, 0.5 mg/mL protein, 1 μM compound. The procedure, abridged:
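Parent loss was tracked by LC/MS/MS at 0, 5, 15, 30 and 45 min, with half-life derived from the ln(% remaining)–time slope. Incubation at 37 °C, pH 7.4 phosphate/EDTA buffer: 0.5 mg/mL microsomes, 1 μM compound, NADPH-regenerated (2 mM).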

A short description of series [4]: Hepatocytes metabolic stability assay. Type of series: in vitro ADME. Conditions: cryopreserved hepatocytes, human hepatocytes, 1.0×10^6 cells/mL. The procedure, abridged:
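Cryopreserved hepatocytes (1.0×10^6 cells/mL final) were incubated with test compound at 1 μM at 37 °C and sampled at 0, 15, 30, 60 and 120 min, with acetonitrile quench and LC-MS/MS. k came from log-linear % remaining versus time, giving T1/2 and CLint.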

Setting [5] is: dog liver microsomes, read-out: Dog LM Clint.
[6] abbreviates: dog liver microsomes, read-out: Dog LM T½.
[7] abbreviates: human liver microsomes, read-out: Human LM Clint.
The mark [8] stands for this setting: human liver microsomes, read-out: Human LM T½.
Where [9] appears, read: rat liver microsomes, read-out: Rat LM Clint.
Where [10] appears, read: rat liver microsomes, read-out: Rat LM T½.

pIC50: −log10 of the molar value. Like-named read-outs stand apart in the source and are kept apart here.

T2 sequence (P29597 589-875 limits assumed): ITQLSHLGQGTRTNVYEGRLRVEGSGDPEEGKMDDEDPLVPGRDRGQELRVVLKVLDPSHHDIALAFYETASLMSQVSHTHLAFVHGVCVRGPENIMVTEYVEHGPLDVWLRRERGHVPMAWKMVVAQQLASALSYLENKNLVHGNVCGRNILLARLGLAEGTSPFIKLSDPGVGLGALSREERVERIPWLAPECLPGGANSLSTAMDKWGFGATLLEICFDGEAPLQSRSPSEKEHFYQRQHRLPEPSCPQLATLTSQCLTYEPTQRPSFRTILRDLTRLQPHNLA
T5 sequence (P23458 whole entry): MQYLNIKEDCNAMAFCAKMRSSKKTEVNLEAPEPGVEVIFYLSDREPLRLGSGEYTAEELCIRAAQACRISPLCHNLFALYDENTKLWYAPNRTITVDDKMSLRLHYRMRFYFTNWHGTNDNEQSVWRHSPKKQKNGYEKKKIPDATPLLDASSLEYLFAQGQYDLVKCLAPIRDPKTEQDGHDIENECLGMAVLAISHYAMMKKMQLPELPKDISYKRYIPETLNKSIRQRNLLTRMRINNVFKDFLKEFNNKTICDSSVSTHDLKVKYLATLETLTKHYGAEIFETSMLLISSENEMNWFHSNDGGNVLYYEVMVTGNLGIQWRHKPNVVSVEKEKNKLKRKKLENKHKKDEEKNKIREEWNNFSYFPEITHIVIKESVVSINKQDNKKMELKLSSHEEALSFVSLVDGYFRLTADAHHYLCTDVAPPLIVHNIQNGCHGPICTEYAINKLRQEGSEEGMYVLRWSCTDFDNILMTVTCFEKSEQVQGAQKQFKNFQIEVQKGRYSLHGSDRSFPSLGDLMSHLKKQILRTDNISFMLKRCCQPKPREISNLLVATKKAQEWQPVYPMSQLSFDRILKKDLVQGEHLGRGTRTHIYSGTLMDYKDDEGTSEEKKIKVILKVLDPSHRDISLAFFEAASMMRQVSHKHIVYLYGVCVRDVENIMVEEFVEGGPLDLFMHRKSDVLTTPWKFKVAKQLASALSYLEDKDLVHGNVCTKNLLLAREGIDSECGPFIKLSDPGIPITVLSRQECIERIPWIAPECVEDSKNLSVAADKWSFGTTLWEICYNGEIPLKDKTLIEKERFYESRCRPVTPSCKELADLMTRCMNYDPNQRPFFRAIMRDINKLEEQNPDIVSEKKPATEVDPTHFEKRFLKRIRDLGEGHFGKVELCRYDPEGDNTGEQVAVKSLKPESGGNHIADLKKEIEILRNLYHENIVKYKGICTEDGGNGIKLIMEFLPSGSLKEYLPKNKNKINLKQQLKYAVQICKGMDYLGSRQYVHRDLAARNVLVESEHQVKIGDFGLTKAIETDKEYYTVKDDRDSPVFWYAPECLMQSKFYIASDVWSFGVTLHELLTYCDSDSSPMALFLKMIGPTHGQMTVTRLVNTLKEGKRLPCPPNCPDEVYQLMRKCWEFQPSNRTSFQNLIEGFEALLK
T1 sequence (P29597 whole entry P760L): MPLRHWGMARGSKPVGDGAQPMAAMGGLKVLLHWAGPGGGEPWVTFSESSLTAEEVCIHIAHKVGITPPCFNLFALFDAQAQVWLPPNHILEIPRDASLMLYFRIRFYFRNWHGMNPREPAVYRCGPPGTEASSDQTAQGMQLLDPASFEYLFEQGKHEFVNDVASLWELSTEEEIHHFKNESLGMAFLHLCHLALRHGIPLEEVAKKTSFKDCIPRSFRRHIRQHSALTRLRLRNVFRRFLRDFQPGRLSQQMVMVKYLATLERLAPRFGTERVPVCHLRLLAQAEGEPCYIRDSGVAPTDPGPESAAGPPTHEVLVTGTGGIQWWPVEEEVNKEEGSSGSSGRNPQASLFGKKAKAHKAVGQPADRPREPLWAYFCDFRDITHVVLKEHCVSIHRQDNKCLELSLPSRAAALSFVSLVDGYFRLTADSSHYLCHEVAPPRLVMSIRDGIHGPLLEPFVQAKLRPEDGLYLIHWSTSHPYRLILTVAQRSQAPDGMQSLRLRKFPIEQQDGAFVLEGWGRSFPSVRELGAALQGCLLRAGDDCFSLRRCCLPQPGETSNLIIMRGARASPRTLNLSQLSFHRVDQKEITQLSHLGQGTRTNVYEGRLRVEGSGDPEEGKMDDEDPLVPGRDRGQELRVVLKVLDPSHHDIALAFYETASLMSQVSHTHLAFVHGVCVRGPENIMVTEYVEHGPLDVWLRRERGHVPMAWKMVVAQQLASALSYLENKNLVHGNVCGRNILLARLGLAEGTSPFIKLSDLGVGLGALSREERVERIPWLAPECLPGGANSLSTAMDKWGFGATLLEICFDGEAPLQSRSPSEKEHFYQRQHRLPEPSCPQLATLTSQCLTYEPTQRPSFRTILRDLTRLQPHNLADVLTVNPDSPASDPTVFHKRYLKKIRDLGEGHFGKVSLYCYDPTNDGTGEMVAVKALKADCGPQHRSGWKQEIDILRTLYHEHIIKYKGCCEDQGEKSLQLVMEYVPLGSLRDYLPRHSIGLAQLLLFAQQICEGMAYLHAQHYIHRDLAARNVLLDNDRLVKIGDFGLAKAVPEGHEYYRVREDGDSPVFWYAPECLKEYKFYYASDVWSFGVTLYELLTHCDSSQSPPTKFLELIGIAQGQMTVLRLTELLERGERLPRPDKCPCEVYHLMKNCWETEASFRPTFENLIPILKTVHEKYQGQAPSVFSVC
T3 sequence (P23458 583-855 limits assumed): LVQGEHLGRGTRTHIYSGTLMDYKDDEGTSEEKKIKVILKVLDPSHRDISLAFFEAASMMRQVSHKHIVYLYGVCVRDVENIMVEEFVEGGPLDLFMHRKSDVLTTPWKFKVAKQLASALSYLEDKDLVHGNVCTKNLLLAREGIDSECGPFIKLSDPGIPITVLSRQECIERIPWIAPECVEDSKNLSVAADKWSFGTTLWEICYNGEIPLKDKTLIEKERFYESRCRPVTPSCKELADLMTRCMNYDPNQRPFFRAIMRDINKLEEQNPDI
T4 sequence (P29597 whole entry): as the sequence (P29597 whole entry P760L) above, with L760P counted along it
T6 sequence (O60674 whole entry): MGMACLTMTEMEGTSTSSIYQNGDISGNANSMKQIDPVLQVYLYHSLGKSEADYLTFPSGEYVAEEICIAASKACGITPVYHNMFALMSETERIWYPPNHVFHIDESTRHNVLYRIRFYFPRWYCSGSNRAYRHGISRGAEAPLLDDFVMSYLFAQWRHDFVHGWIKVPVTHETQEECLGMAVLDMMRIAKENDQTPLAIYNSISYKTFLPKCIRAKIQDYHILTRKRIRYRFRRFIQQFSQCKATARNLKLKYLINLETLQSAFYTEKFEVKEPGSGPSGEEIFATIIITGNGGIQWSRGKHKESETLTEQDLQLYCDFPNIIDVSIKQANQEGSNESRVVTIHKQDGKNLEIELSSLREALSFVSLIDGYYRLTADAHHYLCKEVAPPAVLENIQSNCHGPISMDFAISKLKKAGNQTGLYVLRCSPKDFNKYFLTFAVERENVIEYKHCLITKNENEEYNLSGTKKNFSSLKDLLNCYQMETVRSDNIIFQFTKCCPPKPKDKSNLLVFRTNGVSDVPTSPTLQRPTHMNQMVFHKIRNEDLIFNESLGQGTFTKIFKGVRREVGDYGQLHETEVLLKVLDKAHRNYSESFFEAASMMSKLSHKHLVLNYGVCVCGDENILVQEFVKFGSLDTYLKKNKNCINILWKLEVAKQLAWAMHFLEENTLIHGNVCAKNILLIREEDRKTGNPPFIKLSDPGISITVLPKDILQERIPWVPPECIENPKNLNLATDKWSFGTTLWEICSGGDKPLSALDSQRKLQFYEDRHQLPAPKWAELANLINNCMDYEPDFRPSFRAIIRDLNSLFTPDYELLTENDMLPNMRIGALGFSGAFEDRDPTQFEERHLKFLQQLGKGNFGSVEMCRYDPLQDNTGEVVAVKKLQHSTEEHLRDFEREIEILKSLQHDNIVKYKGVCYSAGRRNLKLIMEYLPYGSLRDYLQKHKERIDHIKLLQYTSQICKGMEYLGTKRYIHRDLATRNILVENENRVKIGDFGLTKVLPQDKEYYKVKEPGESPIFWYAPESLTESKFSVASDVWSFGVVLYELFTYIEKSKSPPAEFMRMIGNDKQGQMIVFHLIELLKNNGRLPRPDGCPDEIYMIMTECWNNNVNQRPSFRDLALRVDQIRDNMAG

With `[2H]C([2H])([2H])NC(=O)c1cnc(NC(=O)C2CC2)cc1Nc1ccn2ncc(CO)c2c1OC` [Example 225, 6-(Cyclopropanecarboxamido)-4-((3-(hydroxymethyl)-4-methoxypyrazolo[1,5-a]pyridin-5-yl)amino)-N-(methyl-d3)nicotinamide], the GI50 in series [1] is 565 nM. The fraction unbound at 5 h in series [2] was 0.346. Moreover, on TYK2-JH2 domain, the pIC50 was 9.06 and the JAK1/TYK2 selectivity is 17.5. This compound showed a pIC50 on JAK1-JH2 domain of 7.82.

On to `[2H]C([2H])([2H])NC(=O)c1cnc(NC(=O)C2CC2)cc1Nc1ccn2ncc(COC)c2c1OC` [Example 226, 6-(Cyclopropanecarboxamido)-4-((4-methoxy-3-(methoxymethyl)pyrazolo[1,5-a]pyridin-5-yl)amino)-N-(methyl-d3)nicotinamide], for which the GI50 in series [1] is 221 nM. Moreover, the fraction unbound at 5 h in series [2] is 0.126. Besides, the figures for the pIC50 at TYK2-JH2 domain and on JAK1-JH2 domain were 8.84 and 7.25, respectively. In addition, the JAK1/TYK2 selectivity on TYK2-JH2 domain was 38.8.

Turning to `CCn1ncc2ccc(Nc3cc(NC(=O)C4CC4)ncc3C(=O)NC)c(OC)c21` [Example 228, 6-(Cyclopropanecarboxamido)-4-((1-ethyl-7-methoxy-1H-indazol-6-yl)amino)-N-methylnicotinamide], the GI50 in series [1] came out at 29.3 nM. Moreover, the fraction unbound at 5 h in series [2] is 0.04. Moreover, the pIC50 was 9.54 at TYK2-JH2 domain, 8.19 on JAK1-JH2 domain and 6.61 in the series on pSTAT1. On TYK2-JH2 domain, the JAK1/TYK2 selectivity is recorded as 22.5.

For the compound `CNC(=O)c1cnc2nc1Nc1cc(cc(-c3ncn(C)n3)c1OC)CN(C)Cc1cccc(c1)N2` [Example 22, 10-Methoxy-N,15-dimethyl-11-(1-methyl-1,2,4-triazol-3-yl)-2,4,8,15,23-pentazatetracyclo[15.3.1.13,7.19,13]tricosa-1(21),3(23),4,6,9,11,13(22),17,19-nonaene-6-carboxamide], the GI50 in series [1] was found to be 861 nM. Besides, the pIC50 on TYK2, against JAK1 and against JAK2 was below 5.30 in each case.

In the case of `[2H]C([2H])([2H])NC(=O)c1cnc(Nc2cccc(C#N)n2)nc1Nc1cccc(-c2ncn(C)n2)c1OC` [Example 21, 2-[(6-Cyano-2-pyridyl)amino]-4-[2-methoxy-3-(1-methyl-1,2,4-triazol-3-yl)anilino]-N-(trideuteriomethyl)pyrimidine-5-carboxamide], the GI50 in series [1] is 77.5 nM. Further, the pIC50 against TYK2 was below 5.30. Moreover, the microsomal CLint at 1 μM was 26.8 µL/min/mg in series [3] (setting [5]), 6.42 µL/min/mg in series [3] (setting [7]) and 7.4 µL/min/mg in series [3] (setting [9]). The half-life at 1 μM came to 0.861 h in series [3] (setting [6]), 3.6 h in [3] (setting [8]) and 3.12 h in [3] (setting [10]).

On to `[2H]C([2H])([2H])NC(=O)c1cnc(NC(=O)C2CC2)cc1Nc1ccc2cnn(C([2H])([2H])C([2H])([2H])[2H])c2c1OC([2H])([2H])[2H]` [Example 134, 6-(Cyclopropanecarboxamido)-4-((1-(ethyl-d5)-7-(methoxy-d3)-1H-indazol-6-yl)amino)-N-(methyl-d3)nicotinamide], for which the GI50 in series [1] was determined as 61.4 nM. In addition, the fraction unbound at 5 h in [2] was 0.049. Moreover, the CLint scaled at 1 μM in series [4] (read-out: Human hepatocyte Clint(liver)) amounted to 18 mL/min/kg. Further, in series [4] (read-out: Human hepatocyte stability T1/2), the half-life at 1 μM was found to be 1.64 h.

On to `CNC(=O)c1cnc2nc1Nc1cc(cc(-c3ncn(C)n3)c1OC)COCc1cccc(c1)N2` [Example 33, 10-Methoxy-N-methyl-11-(1-methyl-1,2,4-triazol-3-yl)-15-oxa-2,4,8,23-tetrazatetracyclo[15.3.1.13,7.19,13]tricosa-1(21),3(23),4,6,9,11,13(22),17,19-nonaene-6-carboxamide], for which the GI50 in [1] amounted to 499 nM. Moreover, the pIC50 against TYK2, against JAK1 and against JAK2 was below 5.30 each time. The microsomal CLint at 1 μM in series [3] (setting [5]) was determined as 14.5 µL/min/mg; in series [3] (setting [7]) it was 26.2 µL/min/mg; in series [3] (setting [9]), 21.8 µL/min/mg. Moreover, the half-life at 1 μM came to 3.97 h in [3] (setting [6]), 2.2 h in series [3] (setting [8]) and 2.65 h in [3] (setting [10]).

On to `CNC(=O)c1nnc(NC(=O)C2CC2)cc1Nc1cccc2ccn(C)c(=O)c12` [Example 24, 6-(Cyclopropanecarboxamido)-N-methyl-4-((2-methyl-1-oxo-1,2-dihydroisoquinolin-8-yl)amino)pyridazine-3-carboxamide], for which, in series [1], the GI50 is 1390 nM. The compound further gave a pIC50 at TYK2 below 5.30.

On to `CCN1CCc2scc(Nc3cc(NC(=O)C4CC4)ncc3C(=O)NC)c2C1=O` [Example 39, 6-(Cyclopropanecarboxamido)-4-((5-ethyl-4-oxo-4,5,6,7-tetrahydrothieno [3,2-c]pyridin-3-yl)amino)-N-methyl-nicotinamide], for which the GI50 in series [1] worked out at 88.1 nM. Also, the pIC50 on TYK2, at JAK1 and at JAK2 was below 5.30 in each case.
